Laboratory results from patent publication US4738979A, “α2 -blocking derivatives of imidazole” (G. D. Searle & Co., priority 1985, dated 1988).

Molecular target: T1, α2 -adrenergic receptors (Cavia porcellus, UniProt Q60474)
T1 construct: from tissue; host or cells: isolated guinea pig ileum
T1 sequence (Q60474 1-464): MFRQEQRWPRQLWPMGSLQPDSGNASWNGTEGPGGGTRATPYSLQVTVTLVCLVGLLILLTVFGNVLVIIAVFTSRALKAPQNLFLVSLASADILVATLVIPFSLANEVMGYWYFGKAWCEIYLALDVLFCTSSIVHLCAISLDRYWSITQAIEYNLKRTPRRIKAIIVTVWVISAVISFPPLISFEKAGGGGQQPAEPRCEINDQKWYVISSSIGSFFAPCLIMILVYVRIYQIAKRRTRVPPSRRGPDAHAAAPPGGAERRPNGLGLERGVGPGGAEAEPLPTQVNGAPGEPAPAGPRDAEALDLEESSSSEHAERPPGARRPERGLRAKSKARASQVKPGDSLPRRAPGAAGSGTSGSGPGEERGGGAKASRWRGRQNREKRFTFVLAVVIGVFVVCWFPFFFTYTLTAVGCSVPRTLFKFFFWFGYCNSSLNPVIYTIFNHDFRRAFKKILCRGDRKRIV
Assay: α2 antagonist and α2 agonist activity in isolated guinea pig ileum (clonidine)
Settings: 50% of maximum inhibition obtained with clonidine, read-out: α2 Agonist Activity (-log ED50) (converted)
Protocol: The α2 antagonist and α2 agonist activity of the compounds according to the invention was determined upon isolated organs according to a model described by G. M. Drews, Br. J. Pharmaco., 64, 293-300 (1978).
This model is based upon the principle that the stimulation of the cholinergic nervous transmissions of the guinea pig ileum causes the liberation of acetyl choline, which in turn causes contractions of the ileum.
The stimulation of the α2 -adrenergic receptors inhibits the activity of the cholinergic nerve and consequently reduces all response resulting from a timulation of the latter. Thus the contractions of the ileum induced by electric stimulation of the tissue are inhibited by clonidine, an α2 agonist, in proportion to the dose. This inhibition is specifically displaced by the α2 antagonists and not by the α1 antagonists.
The method utilized can be summarized as follows: three dose-response curves to clonidine are established at an interval of 60 minutes. Two concentrations of the product to be tested are added successively 10 minutes before the realization of the second and third clonidine curves. Next, after washing, a dose-response curve is established with the product to be tested.
The dose-response curves are calculated as a percentage of the maximum inhibition obtained for the first curve. In this system the products having an α2 antagonist activity displace the dose-response curve to clonidine. The α2 antagonist activity, expressed in pA2 value, shown in column 4, is calculated according to J. M. Van Rossum, Arch. Int. Pharmacodyn., 143, 299-300 (1963).
A reduction of the contractions induced by the tested product alone indicates an α2 agonist effect. This activity is expressed in--log ED50 (the--logarithm of the concentration of the product giving 50% of the maximum inhibition obtained with clonidine).
The higher the pA2 value, the higher the α2 antagonist activity; the higher the--log ED50 value (i.e., the pA2 agonist activity), the higher the α2 agonist activity.

Row | Compound | EC50 [µM]
1 | CC(=C(c1ccccc1)c1ccccc1)c1c[nH]cn1 [Compound 2, 4(5)-[(2,2-diphenyl-1-methyl)ethenyl]imidazole] | 2.51

Same assay, conditions: versus clonidine, read-out: α2 Antagonist Activity (pA2) (converted)

Row | Compound | Kb [µM]
2 | CC(=C(c1ccccc1)c1ccccc1)c1c[nH]cn1 [Compound 2, 4(5)-[(2,2-diphenyl-1-methyl)ethenyl]imidazole] | 0.0501

Tested on: bicuculline-induced tonic extension in mice
Assay: protection against bicuculline-induced tonic extension in mice
Type: in vivo
Settings: Mus musculus, iv, 3 hours prior to bicuculline 0.7 mg/kg i.v., read-out: Anticonvulsive effect (versus Bicuculline) (% Protection)
Protocol: In the second study the anti-convulsant effect of the compounds of the present invention was examined in two seizure models; bicuculline-induced tonic extension in mice and 3-mercaptopropionic acid (3-MPA)-induced tonic extension in mice.
In the bicuculline study, the ability of the compounds of the present invention to protect against tonic extension (involving rigidity) was evaluated as follows. Each test compound was administered to a group of ten mice at a dose of 10 mg/kg, 3 hours prior to the i.v. administration of bicuculline (0.7 mg/kg). Anticonvulsant activity in this test is expressed as percentage of animals tested. The results are given in Table II, column 6, and indicate that several compounds display significant anticonvulsive activity in this test. The anticonvulsant effect of the compounds has also been tested with respect to the tonic extension induced by 3-mercaptopropionic acid (120 mg/kg subcutaneously) in mice.

Row | Compound | responders at 10 mg/kg [%]
3 | CC(=C(c1ccccc1)c1ccccc1)c1c[nH]cn1 [Compound 2, 4(5)-[(2,2-diphenyl-1-methyl)ethenyl]imidazole] | 20
4 | OC(c1c[nH]cn1)C(c1ccccc1)c1ccccc1 (centres unmarked) [Compound 5] | 30
5 | COC(c1c[nH]cn1)C(c1ccccc1)c1ccccc1 (centres unmarked) [Compound 6] | 30
6 | c1ccc(C(Cc2c[nH]cn2)(c2ccccc2)c2ccccc2)cc1 [Compound 8] | 20
7 | C(=C(c1ccccc1)c1ccccc1)c1c[nH]cn1 [Compound 11] | 40
8 | CCCC(=C(c1ccccc1)c1ccccc1)c1c[nH]cn1 [Compound 18, 4(5)-[(2,2-diphenyl-1-n.propyl)-ethenyl]-imidazole] | 50

Molecular target: T2, α2 -adrenergic receptors (Rattus norvegicus, UniProt P22909)
T2 construct: from tissue; host or cells: rat brain homogenates
T2 sequence (P22909 1-465): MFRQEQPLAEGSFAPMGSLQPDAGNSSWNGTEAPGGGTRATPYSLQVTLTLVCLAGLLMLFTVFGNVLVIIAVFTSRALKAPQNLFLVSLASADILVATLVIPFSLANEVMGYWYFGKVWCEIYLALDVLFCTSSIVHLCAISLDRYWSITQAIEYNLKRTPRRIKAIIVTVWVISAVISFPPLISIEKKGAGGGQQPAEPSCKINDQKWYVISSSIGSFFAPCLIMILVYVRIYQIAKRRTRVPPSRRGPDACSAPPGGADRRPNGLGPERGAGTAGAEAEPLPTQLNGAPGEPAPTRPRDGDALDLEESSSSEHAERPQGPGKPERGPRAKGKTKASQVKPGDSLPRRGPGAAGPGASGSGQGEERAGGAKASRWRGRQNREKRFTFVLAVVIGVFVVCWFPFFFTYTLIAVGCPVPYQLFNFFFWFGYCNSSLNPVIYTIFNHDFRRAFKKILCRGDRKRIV
Assay: binding to α2-adrenergic receptors on rat brain homogenates (3H-p. aminoclonidine)
Settings: 10^-7 M; rat brain homogenates; 0.7 nM 3H-p. aminoclonidine; read-out: % Inhibition of the Specific Binding at 10^-7 M for α2 Recep.
Protocol: (§1) The activity of the compounds according to the invention with respect to binding of the α-adrenergic receptors was determined in vitro according to a method deriving from the works of B. R. Rouot et al., Life Sci., 25, 769 (1979) and of D. U'Prichard et al., Mol. Pharmacol., 13, 454 (1977). This method consists in measuring the binding to the receptor on rat brain homogenates, by marking by means of a specific tritriated ligand placed in competition with the product to be tested.
(§2) In the presenct case the binding to the α1 -adrenergic receptors was measured by means of 1.6 nM of ^3 H-WB 4101 and the binding to the α2 -adrenergic receptors by means of 0.7 nM of ^3 H-p. aminoclonidine, the non-specific binding being determined by 1,000 nM of phentolamine. The results are given in Table II, column 3, and are expressed in terms of percentage of inhibition of the specific binding of 10^-7 molar compound concentration.
(§3) (2) The specific binding is the total binding less the nonspecific
(§4) binding. The total binding is the binding in the absence of nonradioactiv
(§5) drug. The nonspecific binding is the binding in the presence of 1,000 nM
(§6) of phentolamine. The products of the invention are tested at a
(§7) concentration of 10^-7 molar.

Row | Compound | inhibition at 0.1 µM [%]
9 | CC(=C(c1ccccc1)c1ccccc1)c1c[nH]cn1 [Compound 2, 4(5)-[(2,2-diphenyl-1-methyl)ethenyl]imidazole] | 43
10 | OC(c1c[nH]cn1)C(c1ccccc1)c1ccccc1 (centres unmarked) [Compound 5] | 2
11 | COC(c1c[nH]cn1)C(c1ccccc1)c1ccccc1 (centres unmarked) [Compound 6] | 0
12 | c1ccc(C(Cc2c[nH]cn2)(c2ccccc2)c2ccccc2)cc1 [Compound 8] | 0
13 | C(=C(c1ccccc1)c1ccccc1)c1c[nH]cn1 [Compound 11] | 9
14 | CCCC(=C(c1ccccc1)c1ccccc1)c1c[nH]cn1 [Compound 18, 4(5)-[(2,2-diphenyl-1-n.propyl)-ethenyl]-imidazole] | 0

Tested on: not listed separately
Assay: acute toxicity after oral administration to mice (LD50)
Settings: mouse, in vivo, 15 days mortality
Protocol: The acute toxicity of the compounds of the present invention was studied after oral administration to mice. The products to be tested, suspended in a 1% tragacanth gum mucilage, were administered by means of an intragastric probe to groups of three male mice which had fasted since the preceding day. The doses tested are a function of the effect observed and can vary from 3,000 to 3 mg/kg or less. The mortality was recorded for 15 days. The lethal dose for 50% of the animals (LD50) was calculated according to the method of J. Litchfield and F. Wilcoxon, J. Pharmacol. Exp. Ther., 96, 99 (1949) and expressed in mg/kg. The effect of the products on the behaviour of the animals is observed until 5 to 6 hours after the treatment indicated above and after 24 hours, using a method derived from that of S. Irwin, described by R. A. Turner, Screening Methods in Pharmacology, Chapter 3, pages 22-34, Academic Press, 1965. If anomalies are noted, the observation is prolonged and smaller doses are tested.

Row | Compound | LD50 at 360 h [mg/kg]
15 | OC(c1c[nH]cn1)C(c1ccccc1)c1ccccc1 (centres unmarked) [Compound 5] | > 300
16 | c1ccc(C(Cc2c[nH]cn2)(c2ccccc2)c2ccccc2)cc1 [Compound 8] | 1.75
17 | CCCC(=C(c1ccccc1)c1ccccc1)c1c[nH]cn1 [Compound 18, 4(5)-[(2,2-diphenyl-1-n.propyl)-ethenyl]-imidazole] | 270

Tested on: α2 adrenergic receptors of the central nervous system
Assay: inhibition of the antihypertensive action of clonidine in spontaneously hypertensive rats (SHR)
Type: in vivo, rat
Settings: 1 mg/kg p.o., clonidine 50 μg/kg s.c.
Protocol: In the first study, carried out upon unanaesthetized spontaneously hypertensive rats (SHR rats), the ability of the compounds of the present invention to inhibit the antihypertensive action of clonidine was determined.
The antihypertensive activity of clonidine results from an interaction with α2 adrenergic receptors of the central nervous system, i.e., central antihypertensive actions.
In this test, two groups of SHR rats are utilized as follows. In the first group, prior to subcutaneous administration of clonidine (50 μg/kg), the SHR rats are treated with the compound to be tested (1 mg/kg p.o.) dissolved in a saline vehicle. The second group (control group) of SHR rats are treated with the saline vehicle only, prior to subcutaneous administration of clonidine.
The arterial pressure is measured in the region of the median coccygeal artery according to the method of J. Roba, A. F. DeSchaepdrijver, Exp. Anim., 4, 147-162 (1971).
The results of this assay summarized in Table II, column 5, are expressed as a percentage of inhibition of the effect of clonidine.

Row | Compound | α2 Antagonist (% Inhibition of the Antihypertension of Clonidine) [%]
18 | CC(=C(c1ccccc1)c1ccccc1)c1c[nH]cn1 [Compound 2, 4(5)-[(2,2-diphenyl-1-methyl)ethenyl]imidazole] | 71
19 | OC(c1c[nH]cn1)C(c1ccccc1)c1ccccc1 (centres unmarked) [Compound 5] | 24
20 | COC(c1c[nH]cn1)C(c1ccccc1)c1ccccc1 (centres unmarked) [Compound 6] | 62
21 | c1ccc(C(Cc2c[nH]cn2)(c2ccccc2)c2ccccc2)cc1 [Compound 8] | 28
22 | C(=C(c1ccccc1)c1ccccc1)c1c[nH]cn1 [Compound 11] | 48
23 | CCCC(=C(c1ccccc1)c1ccccc1)c1c[nH]cn1 [Compound 18, 4(5)-[(2,2-diphenyl-1-n.propyl)-ethenyl]-imidazole] | 47

Tested on: α1 -adrenergic receptors
Assay: binding to α1-adrenergic receptors on rat brain homogenates (3H-WB 4101)
Settings: 1.6 nM 3H-WB 4101
Protocol: as §1, §2, §3, §4, §5, §6, §7

Row | Compound | % Inhibition of the Specific Binding at 10^-7 M for α1 Recep. [%]
24 | CC(=C(c1ccccc1)c1ccccc1)c1c[nH]cn1 [Compound 2, 4(5)-[(2,2-diphenyl-1-methyl)ethenyl]imidazole] | 3
25 | OC(c1c[nH]cn1)C(c1ccccc1)c1ccccc1 (centres unmarked) [Compound 5] | 3
26 | COC(c1c[nH]cn1)C(c1ccccc1)c1ccccc1 (centres unmarked) [Compound 6] | 0
27 | c1ccc(C(Cc2c[nH]cn2)(c2ccccc2)c2ccccc2)cc1 [Compound 8] | 0
28 | C(=C(c1ccccc1)c1ccccc1)c1c[nH]cn1 [Compound 11] | 6
29 | CCCC(=C(c1ccccc1)c1ccccc1)c1c[nH]cn1 [Compound 18, 4(5)-[(2,2-diphenyl-1-n.propyl)-ethenyl]-imidazole] | 0
